{"source": "paper PMC5826917", "about": "“A small molecule inhibitor of Nicotinamide N-methyltransferase for the treatment of metabolic disorders” (Scientific Reports, 2018)", "key": {"[1]": {"test_system": "SK+Ca channel-", "assay": "Selectivity panel: SK+Ca channel", "type": "binding", "conditions": "10 µM"}, "[2]": {"target": "Cannabinoid Receptor 1 (CB1) (Homo sapiens, UniProt P21554)", "sequence (P21554 whole entry)": "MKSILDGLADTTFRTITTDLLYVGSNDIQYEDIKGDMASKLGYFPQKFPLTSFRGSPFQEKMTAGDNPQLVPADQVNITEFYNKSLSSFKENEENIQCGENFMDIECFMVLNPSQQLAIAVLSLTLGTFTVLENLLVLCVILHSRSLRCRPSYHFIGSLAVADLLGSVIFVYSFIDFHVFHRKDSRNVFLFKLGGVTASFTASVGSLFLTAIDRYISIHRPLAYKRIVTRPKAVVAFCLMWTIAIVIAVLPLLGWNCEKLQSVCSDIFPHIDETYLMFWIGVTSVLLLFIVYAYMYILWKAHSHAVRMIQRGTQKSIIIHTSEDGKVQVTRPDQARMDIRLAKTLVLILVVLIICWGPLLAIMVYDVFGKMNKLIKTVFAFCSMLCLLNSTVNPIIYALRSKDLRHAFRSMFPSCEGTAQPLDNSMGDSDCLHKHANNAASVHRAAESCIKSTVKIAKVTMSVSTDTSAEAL", "assay": "Selectivity panel: CB1", "type": "cell-based", "procedure": "(§1) Supplement 41598_2018_22081_MOESM1_ESM.docx, table 2: Supplementary table 2: Selectivity profile of JBSNF-000088 (at 10 µM) vs a panel of 34 receptors, channels and enzymes. | column: E% (agonistic); I% (antagonistic or inhibitory)"}, "[3]": {"assay": "in vitro", "conditions": "human, microsomes, Metabolic stability human microsomes (% remaining)"}, "[4]": {"conditions": "0.5 h"}, "[5]": {"target": "Muscarinic Receptor 2 (CHRM2) (Homo sapiens, UniProt P08172)", "sequence (P08172 whole entry)": "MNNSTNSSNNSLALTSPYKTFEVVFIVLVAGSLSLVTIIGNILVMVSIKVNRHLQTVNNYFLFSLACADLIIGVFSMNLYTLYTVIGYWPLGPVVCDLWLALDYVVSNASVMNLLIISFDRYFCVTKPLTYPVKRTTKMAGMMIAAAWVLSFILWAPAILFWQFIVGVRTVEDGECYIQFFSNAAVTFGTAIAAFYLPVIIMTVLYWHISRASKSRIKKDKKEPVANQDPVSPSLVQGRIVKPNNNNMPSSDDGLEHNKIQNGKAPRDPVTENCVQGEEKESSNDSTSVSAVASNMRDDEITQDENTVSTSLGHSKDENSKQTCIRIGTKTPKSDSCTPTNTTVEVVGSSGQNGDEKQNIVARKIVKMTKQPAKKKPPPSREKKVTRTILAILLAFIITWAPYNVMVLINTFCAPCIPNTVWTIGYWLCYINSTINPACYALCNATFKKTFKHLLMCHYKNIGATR", "assay": "Selectivity panel: CHRM2", "type": "cell-based", "procedure": "as §1"}, "[6]": {"target": "Adenosine Receptor 2A (ADORA2A) (Homo sapiens, UniProt P29274)", "sequence (P29274 whole entry)": "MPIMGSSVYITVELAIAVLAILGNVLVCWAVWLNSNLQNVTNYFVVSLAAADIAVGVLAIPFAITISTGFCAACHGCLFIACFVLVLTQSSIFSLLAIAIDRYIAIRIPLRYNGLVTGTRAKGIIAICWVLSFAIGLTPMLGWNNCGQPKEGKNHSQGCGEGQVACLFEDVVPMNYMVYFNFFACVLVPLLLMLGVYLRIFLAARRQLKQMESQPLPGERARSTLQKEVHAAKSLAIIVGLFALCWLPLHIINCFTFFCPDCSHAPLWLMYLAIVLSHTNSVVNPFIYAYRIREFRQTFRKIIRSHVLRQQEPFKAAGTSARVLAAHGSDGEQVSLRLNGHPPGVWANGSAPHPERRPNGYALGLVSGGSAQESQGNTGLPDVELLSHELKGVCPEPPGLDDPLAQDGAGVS", "assay": "Selectivity panel: ADORA2A", "type": "cell-based"}, "[7]": {"target": "Histamine Receptor 2 (H2) (Homo sapiens, UniProt P25021)", "sequence (P25021 whole entry)": "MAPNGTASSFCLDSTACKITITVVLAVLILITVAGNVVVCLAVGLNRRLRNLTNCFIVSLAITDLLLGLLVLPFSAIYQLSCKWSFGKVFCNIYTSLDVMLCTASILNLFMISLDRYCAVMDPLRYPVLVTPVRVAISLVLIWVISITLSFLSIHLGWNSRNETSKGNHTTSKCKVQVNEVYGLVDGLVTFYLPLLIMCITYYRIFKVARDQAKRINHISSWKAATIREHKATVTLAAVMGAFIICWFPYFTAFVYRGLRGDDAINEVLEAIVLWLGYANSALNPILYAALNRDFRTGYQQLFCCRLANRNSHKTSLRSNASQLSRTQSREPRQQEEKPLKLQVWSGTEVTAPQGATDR", "assay": "Selectivity panel: H2", "type": "cell-based"}, "[8]": {"target": "Histamine Receptor 1 (H1) (Homo sapiens, UniProt P35367)", "sequence (P35367 whole entry)": "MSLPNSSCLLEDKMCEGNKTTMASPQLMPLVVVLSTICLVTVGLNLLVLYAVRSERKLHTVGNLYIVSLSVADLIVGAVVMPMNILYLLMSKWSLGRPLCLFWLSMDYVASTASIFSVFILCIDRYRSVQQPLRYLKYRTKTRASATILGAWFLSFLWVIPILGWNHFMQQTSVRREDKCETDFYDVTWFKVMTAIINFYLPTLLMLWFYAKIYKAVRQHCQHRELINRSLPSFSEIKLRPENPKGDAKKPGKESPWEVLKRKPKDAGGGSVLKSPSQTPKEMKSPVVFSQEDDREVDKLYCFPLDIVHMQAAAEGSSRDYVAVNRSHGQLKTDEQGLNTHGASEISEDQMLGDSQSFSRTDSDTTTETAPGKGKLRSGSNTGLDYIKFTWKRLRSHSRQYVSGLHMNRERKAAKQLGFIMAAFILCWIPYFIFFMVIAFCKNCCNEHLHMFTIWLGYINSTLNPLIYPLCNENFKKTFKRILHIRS", "assay": "Selectivity panel: H1", "type": "cell-based"}, "[9]": {"conditions": "0.5 h", "remark": "listed apart in the source"}, "[10]": {"target": "Muscarinic Receptor 1 (CHRM1) (Homo sapiens, UniProt P11229)", "sequence (P11229 whole entry)": "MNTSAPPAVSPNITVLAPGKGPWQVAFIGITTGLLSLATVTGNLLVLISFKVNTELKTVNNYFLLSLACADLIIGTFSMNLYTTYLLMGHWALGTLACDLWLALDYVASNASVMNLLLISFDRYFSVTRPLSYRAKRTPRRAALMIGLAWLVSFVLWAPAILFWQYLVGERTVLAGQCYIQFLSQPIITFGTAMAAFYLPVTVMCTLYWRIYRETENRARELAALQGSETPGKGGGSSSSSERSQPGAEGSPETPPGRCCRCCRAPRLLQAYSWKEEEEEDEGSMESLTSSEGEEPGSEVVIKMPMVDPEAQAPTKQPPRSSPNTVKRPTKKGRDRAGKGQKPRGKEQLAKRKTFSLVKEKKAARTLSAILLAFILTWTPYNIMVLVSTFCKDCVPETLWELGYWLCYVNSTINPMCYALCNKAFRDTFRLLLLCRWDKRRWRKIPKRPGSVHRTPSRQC", "assay": "Selectivity panel: CHRM1", "type": "cell-based", "procedure": "as §1"}, "[11]": {"target": "Nicotinic AChR alpha4 beta2 (nAChRa4b2) (Homo sapiens, UniProt P17787+P43681)", "assay": "Selectivity panel: nAChRa4b2", "type": "binding", "conditions": "read-out: I% (antagonistic or inhibitory), nAChRa4b2", "procedure": "(§2) Supplement 41598_2018_22081_MOESM1_ESM.docx, table 2: Supplementary table 2: Selectivity profile of JBSNF-000088 (at 10 µM) vs a panel of 34 receptors, channels and enzymes. | column: I% (antagonistic or inhibitory)"}, "[12]": {"target": "T1, monkey NNMT (mkNNMT) (Macaca mulatta, UniProt F7ERX8)", "T1 construct": "made in house", "T1 sequence (F7ERX8 1-264)": "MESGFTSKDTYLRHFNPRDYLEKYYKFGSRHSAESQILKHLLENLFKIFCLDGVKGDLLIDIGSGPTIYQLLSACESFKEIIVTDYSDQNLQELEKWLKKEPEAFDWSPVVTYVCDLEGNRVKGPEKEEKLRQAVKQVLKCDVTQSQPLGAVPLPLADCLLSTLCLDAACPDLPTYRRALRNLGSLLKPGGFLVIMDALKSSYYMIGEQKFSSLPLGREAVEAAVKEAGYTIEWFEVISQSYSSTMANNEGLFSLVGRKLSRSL", "assay": "Fluorescence based NNMT enzymatic assay (monkey)", "conditions": "fluorescence based biochemical assay", "procedure": "NNMT activity was measured with the fluorescence enzymatic assay[22],[23]. MNA formed in the NNMT reaction reacts with acetophenone in the presence of KOH and formic acid and forms a fluorescent product 2, 7- naphthyridine. JBSNF-000088 was screened using human, mouse and monkey NNMT enzymes. Different concentrations of inhibitors were preincubated along with the enzyme for 30 minutes at room temperature. Reaction was initiated by addition of SAM and nicotinamide mixture (7 µM, 20 µM, 8 µM SAM and 6 µM, 20 µM, 9 µM nicotinamide for human, mouse and monkey NNMT assays respectively) for 60 minutes at 37 °C. The final assay reaction mixture contained a buffer of 100 mM Tris Hcl pH 7.5, 0.04% BSA, 2 mM dithiothreitol and 1% DMSO. At the end of the incubation, the reaction was stopped by the addition of ethanol: acetophenone mix (75% ethanol: 25% acetophenone) and 5 M potassium hydroxide prepared with 50% ethanol. The reaction was incubated for 15 minutes following which 100 µL of 60% formic acid was added. […] The fluorescent product 2, 7- naphthyridine was measured using a Tecan reader with excitation at 375 nm and emission at 430 nm. The IC50 values were determined by fitting the inhibition curves (percent inhibition versus inhibitor concentration) using a four parametric sigmoidal dose response using GraphPad Prism software."}, "[13]": {"conditions": "C57BL/6, mouse, in vivo, iv"}, "[14]": {"test_system": "Cl- Channel", "assay": "Selectivity panel: Cl- channel", "type": "binding", "conditions": "10 µM"}, "[15]": {"target": "Serotonin receptor 2B (5HT2B (Homo sapiens, UniProt P41595))", "sequence (P41595 whole entry)": "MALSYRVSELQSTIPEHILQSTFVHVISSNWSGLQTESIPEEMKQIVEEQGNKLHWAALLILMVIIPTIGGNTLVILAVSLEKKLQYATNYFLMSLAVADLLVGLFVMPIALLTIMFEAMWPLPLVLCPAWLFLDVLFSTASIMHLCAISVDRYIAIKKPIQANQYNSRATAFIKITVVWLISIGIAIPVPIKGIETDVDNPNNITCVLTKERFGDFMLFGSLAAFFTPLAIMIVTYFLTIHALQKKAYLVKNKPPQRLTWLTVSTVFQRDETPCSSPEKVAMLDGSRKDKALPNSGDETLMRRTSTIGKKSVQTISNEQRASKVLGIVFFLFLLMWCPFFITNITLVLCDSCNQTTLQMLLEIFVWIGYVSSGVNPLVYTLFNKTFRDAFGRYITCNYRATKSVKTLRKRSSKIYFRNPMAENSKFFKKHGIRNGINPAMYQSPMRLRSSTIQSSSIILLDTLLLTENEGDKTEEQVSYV", "assay": "Selectivity panel: 5HT2B", "type": "cell-based", "procedure": "as §1"}, "[16]": {"target": "Serotonin Receptor 2A (5HT2A) (Homo sapiens, UniProt P28223)", "sequence (P28223 whole entry)": "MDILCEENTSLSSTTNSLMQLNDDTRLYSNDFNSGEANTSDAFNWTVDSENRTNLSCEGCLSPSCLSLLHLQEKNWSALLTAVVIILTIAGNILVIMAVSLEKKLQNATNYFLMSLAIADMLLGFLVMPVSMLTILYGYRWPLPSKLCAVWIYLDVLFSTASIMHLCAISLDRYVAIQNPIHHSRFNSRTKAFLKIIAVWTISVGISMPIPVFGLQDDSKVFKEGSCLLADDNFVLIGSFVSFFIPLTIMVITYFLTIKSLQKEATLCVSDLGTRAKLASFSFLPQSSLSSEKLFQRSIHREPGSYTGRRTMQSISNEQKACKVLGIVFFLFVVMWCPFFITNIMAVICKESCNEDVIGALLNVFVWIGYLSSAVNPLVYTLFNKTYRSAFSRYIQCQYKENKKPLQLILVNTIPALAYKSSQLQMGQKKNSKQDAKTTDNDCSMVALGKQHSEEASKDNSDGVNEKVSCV", "assay": "Selectivity panel: 5HT2A", "type": "cell-based", "procedure": "as §1"}, "[17]": {"target": "Mono Amine Oxydase A (MAO-A) (Homo sapiens, UniProt P21397)", "assay": "Selectivity panel: MAO-A", "type": "biochemical", "conditions": "read-out: I% (antagonistic or inhibitory), MAO-A"}, "[18]": {"target": "Niacin receptor (NAR1) (Homo sapiens, UniProt Q8TDS4)", "assay": "Selectivity panel: NAR1", "type": "cell-based", "conditions": "10 µM"}, "[19]": {"target": "Dopamine Receptor 1 (D1) (Homo sapiens, UniProt P21728)", "sequence (P21728 whole entry)": "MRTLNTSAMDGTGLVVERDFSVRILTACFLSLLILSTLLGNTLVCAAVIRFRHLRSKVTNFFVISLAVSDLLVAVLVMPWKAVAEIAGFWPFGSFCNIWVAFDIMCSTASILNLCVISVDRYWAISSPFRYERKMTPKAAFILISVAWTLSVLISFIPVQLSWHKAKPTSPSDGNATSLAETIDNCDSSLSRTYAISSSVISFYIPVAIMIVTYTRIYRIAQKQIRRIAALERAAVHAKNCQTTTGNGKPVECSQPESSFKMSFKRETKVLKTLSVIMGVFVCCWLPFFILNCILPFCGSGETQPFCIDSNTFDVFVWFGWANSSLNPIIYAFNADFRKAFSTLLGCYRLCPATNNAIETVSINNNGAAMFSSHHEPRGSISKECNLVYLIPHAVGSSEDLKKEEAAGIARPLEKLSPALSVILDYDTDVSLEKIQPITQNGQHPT", "assay": "Selectivity panel: D1", "type": "cell-based", "procedure": "as §1"}, "[20]": {"test_system": "Nicotinic AChR Receptor Muscle-Type", "assay": "Selectivity panel: nAChR muscle-type", "type": "binding", "conditions": "10 µM"}, "[21]": {"target": "Acetylcholinesterase (AChE) (Homo sapiens, UniProt P22303)", "sequence (P22303 32-614)": "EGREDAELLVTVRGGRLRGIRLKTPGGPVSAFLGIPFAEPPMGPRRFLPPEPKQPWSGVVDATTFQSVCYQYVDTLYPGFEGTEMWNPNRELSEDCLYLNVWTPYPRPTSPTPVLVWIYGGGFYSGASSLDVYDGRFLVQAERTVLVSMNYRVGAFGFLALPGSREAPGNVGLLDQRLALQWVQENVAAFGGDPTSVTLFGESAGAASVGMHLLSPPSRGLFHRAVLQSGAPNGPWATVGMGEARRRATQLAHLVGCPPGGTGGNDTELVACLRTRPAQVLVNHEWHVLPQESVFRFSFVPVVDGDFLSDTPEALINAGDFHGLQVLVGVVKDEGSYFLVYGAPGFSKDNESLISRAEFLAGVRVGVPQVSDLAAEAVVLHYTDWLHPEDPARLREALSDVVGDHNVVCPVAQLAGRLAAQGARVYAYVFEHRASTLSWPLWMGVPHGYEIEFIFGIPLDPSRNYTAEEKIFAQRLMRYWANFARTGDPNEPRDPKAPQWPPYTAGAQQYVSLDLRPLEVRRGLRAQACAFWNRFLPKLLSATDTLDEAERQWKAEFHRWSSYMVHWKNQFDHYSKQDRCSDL", "assay": "Selectivity panel: AChE", "type": "biochemical", "conditions": "read-out: I% (antagonistic or inhibitory), AChE", "procedure": "as §2"}, "[22]": {"assay": "in vitro", "conditions": "mouse, microsomes, Metabolic stability mouse microsomes (% remaining)"}}}
{"smiles": "COc1ccc(C(N)=O)cn1", "note": "[JBSNF-000088, 6-methoxynicotinamide]", "values": [{"measurement": "I% (antagonistic or inhibitory), SK+Ca channel", "setting": "[1]", "result": -4, "unit": "%"}, {"measurement": "E% (agonistic), CB1", "setting": "[2]; 10 µM", "result": 0, "unit": "%"}, {"measurement": "inhibition at 10 µM", "setting": "[2]; read-out: I% (antagonistic or inhibitory), CB1", "result": 1, "unit": "%"}, {"measurement": "remaining at 0.5 h", "setting": "[3]", "result": "> 70", "unit": "%"}, {"measurement": "Metabolic stability mouse microsomes (% remaining)", "setting": "[4]", "result": 79, "unit": "%"}, {"measurement": "E% (agonistic), CHRM2", "setting": "[5]; 10 µM", "result": 13, "unit": "%"}, {"measurement": "inhibition at 10 µM", "setting": "[5]; read-out: I% (antagonistic or inhibitory), CHRM2", "result": 3, "unit": "%"}, {"measurement": "E% (agonistic), ADORA2A", "setting": "[6]; 10 µM", "result": 4, "unit": "%"}, {"measurement": "inhibition at 10 µM", "setting": "[6]; read-out: I% (antagonistic or inhibitory), ADORA2A", "result": 2, "unit": "%"}, {"measurement": "E% (agonistic), H2", "setting": "[7]; 10 µM", "result": -1, "unit": "%"}, {"measurement": "inhibition at 10 µM", "setting": "[7]; read-out: I% (antagonistic or inhibitory), H2", "result": 6, "unit": "%"}, {"measurement": "E% (agonistic), H1", "setting": "[8]; 10 µM", "result": -2, "unit": "%"}, {"measurement": "inhibition at 10 µM", "setting": "[8]; read-out: I% (antagonistic or inhibitory), H1", "result": -5, "unit": "%"}, {"measurement": "Metabolic stability human microsomes (% remaining)", "setting": "[9]", "result": 90, "unit": "%"}, {"measurement": "E% (agonistic), CHRM1", "setting": "[10]; 10 µM", "result": -3, "unit": "%"}, {"measurement": "inhibition at 10 µM", "setting": "[10]; read-out: I% (antagonistic or inhibitory), CHRM1", "result": -7, "unit": "%"}, {"measurement": "inhibition at 10 µM", "setting": "[11]", "result": 5, "unit": "%"}, {"measurement": "IC50", "setting": "[12]", "result": 2800, "unit": "nM"}, {"measurement": "plasma clearance as share of hepatic blood flow in mice", "setting": "[13]", "result": "approximately 25%"}, {"measurement": "I% (antagonistic or inhibitory), Cl- Channel", "setting": "[14]", "result": 8, "unit": "%"}, {"measurement": "E% (agonistic), 5HT2B", "setting": "[15]; 10 µM", "result": 4, "unit": "%"}, {"measurement": "inhibition at 10 µM", "setting": "[15]; read-out: I% (antagonistic or inhibitory), 5HT2B", "result": 13, "unit": "%"}, {"measurement": "E% (agonistic), 5HT2A", "setting": "[16]; 10 µM", "result": 3, "unit": "%"}, {"measurement": "inhibition at 10 µM", "setting": "[16]; read-out: I% (antagonistic or inhibitory), 5HT2A", "result": -9, "unit": "%"}, {"measurement": "inhibition at 10 µM", "setting": "[17]", "result": -1, "unit": "%"}, {"measurement": "E% (agonistic), NAR1", "setting": "[18]", "result": -3, "unit": "%"}, {"measurement": "E% (agonistic), D1", "setting": "[19]; 10 µM", "result": 0, "unit": "%"}, {"measurement": "inhibition at 10 µM", "setting": "[19]; read-out: I% (antagonistic or inhibitory), D1", "result": -3, "unit": "%"}, {"measurement": "I% (antagonistic or inhibitory), Nicotinic AChR Receptor Muscle-Type", "setting": "[20]", "result": -2, "unit": "%"}, {"measurement": "inhibition at 10 µM", "setting": "[21]", "result": 2, "unit": "%"}, {"measurement": "remaining at 0.5 h", "setting": "[22]", "result": "> 70", "unit": "%"}]}
